Data reported in PubChem BioAssay (NCI).
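The compound was tested at five concentrations on cells cultured in 96-well plates, with a 48-hour exposure period. The concentration for full growth arrest is given as TGI.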

Assays:
Test in all cases: NCI-60 cell line screen, 48 h
[1] = test system: UACC-62 melanoma
[2] = test system: SK-OV-3 ovarian
[3] = test system: SF-268 CNS
[4] = test system: KM20L2 colon
[5] = test system: CCRF-CEM leukemia
[6] = test system: M14 melanoma
[7] = test system: SK-MEL-2 melanoma
[8] = test system: SNB-19 CNS
[9] = test system: MOLT-4 leukemia
[10] = test system: NCI-H23 lung
[11] = test system: U251 CNS
[12] = test system: UO-31 renal
[13] = test system: HOP-92 NSCLC
[14] = test system: NCI-H460 lung
[15] = test system: EKVX NSCLC
[16] = test system: IGROV1 ovarian
[17] = test system: DMS 114 small cell lung
[18] = test system: OVCAR-4 ovarian
[19] = test system: SW-620 colon
[20] = test system: HCT-15 colon
[21] = test system: M19-MEL melanoma
[22] = test system: 786-0 renal
[23] = test system: HL-60(TB) leukemia
[24] = test system: LXFL 529 NSCLC
[25] = test system: DLD-1 colon
[26] = test system: SK-MEL-5 melanoma
[27] = test system: TK-10 renal
[28] = test system: OVCAR-5 ovarian
[29] = test system: HOP-18 NSCLC
[30] = test system: SF-295 CNS
[31] = test system: SK-MEL-28 melanoma
[32] = test system: A549 NSCLC
[33] = test system: SNB-78 CNS
[34] = test system: SF-539 CNS
[35] = test system: SNB-75 CNS
[36] = test system: NCI-H522 lung
[37] = test system: KM12 colon
[38] = test system: XF 498 CNS
[39] = test system: K-562 leukemia
[40] = test system: HT29 colon
[41] = test system: SN12C renal
[42] = test system: HCT-116 colon
[43] = test system: DMS 273 small cell lung
[44] = test system: MALME-3M melanoma
[45] = test system: COLO 205 colon
[46] = test system: RPMI-8226 leukemia
[47] = test system: HCC-2998 colon
[48] = test system: NCI-H226 lung
[49] = test system: ACHN renal
[50] = test system: A498 renal
[51] = test system: LOX IMVI melanoma
[52] = test system: OVCAR-8 ovarian
[53] = test system: OVCAR-3 ovarian
[54] = test system: CAKI-1 renal
[55] = test system: HOP-62 NSCLC
[56] = test system: UACC-257 melanoma
[57] = test system: SR leukemia
[58] = test system: RXF 393 renal

For `COc1ccc(C23c4ccc(OC)cc4CC2(c2ccc([N+](=O)[O-])cc2)Cc2cc(OC)ccc23)cc1` (stereo not given), the TGI [1] was > 41.7 µM, the TGI [2] was > 100 µM and the TGI [3] was > 56.9 µM. For the same compound, the TGI [4] was > 44.9 µM, the TGI [5] was > 100 µM and the TGI [6] was > 100 µM. For the same compound, the TGI [7] was > 100 µM, the TGI [8] was > 100 µM and the TGI [9] was > 69.2 µM. The TGI [10] was > 79.3 µM, the TGI [11] was > 100 µM and the TGI [12] was > 77.4 µM. For the same compound, the TGI [13] was > 44.6 µM, the TGI [14] was > 100 µM and the TGI [15] was > 37.9 µM. For the same compound, the TGI [16] was > 81.6 µM, the TGI [17] was > 100 µM and the TGI [18] was > 100 µM. For the same compound, the TGI [19] was > 100 µM, the TGI [20] was > 100 µM and the TGI [21] was > 88.2 µM. The TGI [22] was > 100 µM, the TGI [23] was > 100 µM and the TGI [24] was > 100 µM. For the same compound, the TGI [25] was > 100 µM, the TGI [26] was > 40.2 µM and the TGI [27] was > 100 µM. For the same compound, the TGI [28] was > 85.4 µM, the TGI [29] was 30.8 µM and the TGI [30] was > 100 µM. The TGI [31] was > 55.1 µM, the TGI [32] was > 100 µM and the TGI [33] was > 100 µM. The TGI [34] was > 74.5 µM, the TGI [35] was > 100 µM and the TGI [36] was > 100 µM. For the same compound, the TGI [37] was > 100 µM, the TGI [38] was > 100 µM and the TGI [39] was > 100 µM. The TGI [40] was > 100 µM, the TGI [41] was > 100 µM and the TGI [42] was > 100 µM. For the same compound, the TGI [43] was > 100 µM, the TGI [44] was > 68.4 µM and the TGI [45] was > 52.1 µM. For the same compound, the TGI [46] was > 100 µM, the TGI [47] was > 73 µM and the TGI [48] was > 100 µM. For the same compound, the TGI [49] was > 100 µM, the TGI [50] was > 100 µM and the TGI [51] was > 100 µM. For the same compound, the TGI [52] was > 100 µM, the TGI [53] was > 100 µM and the TGI [54] was > 100 µM. The TGI [55] was > 88 µM and the TGI [56] was > 100 µM.

With `CCOC(=O)C(=O)/C=C(\C)Nc1c(NC2OCC(OC(C)=O)C(OC(C)=O)C2OC(C)=O)nc(SC)[nH]c1=O` (stereo not given) the TGI [1] was > 100 µM, the TGI [2] was > 100 µM and the TGI [3] was > 100 µM. For the same compound, the TGI [4] was > 100 µM, the TGI [5] was > 100 µM and the TGI [6] was > 100 µM. For the same compound, the TGI [7] was > 100 µM, the TGI [8] was > 100 µM and the TGI [9] was > 100 µM. The TGI [10] was > 100 µM, the TGI [11] was > 100 µM and the TGI [12] was > 100 µM. The TGI [13] was > 100 µM, the TGI [14] was > 100 µM and the TGI [15] was > 100 µM. For the same compound, the TGI [16] was > 100 µM, the TGI [17] was > 100 µM and the TGI [18] was > 100 µM. For the same compound, the TGI [19] was > 100 µM, the TGI [20] was > 100 µM and the TGI [21] was > 100 µM. The TGI [22] was > 100 µM, the TGI [24] was > 100 µM and the TGI [25] was > 100 µM. For the same compound, the TGI [26] was > 100 µM, the TGI [27] was > 100 µM and the TGI [28] was > 100 µM. The TGI [29] was > 100 µM, the TGI [30] was > 100 µM and the TGI [31] was > 100 µM. The TGI [32] was > 100 µM, the TGI [35] was > 100 µM and the TGI [36] was > 100 µM. For the same compound, the TGI [37] was > 100 µM, the TGI [38] was > 100 µM and the TGI [39] was > 100 µM. For the same compound, the TGI [40] was > 100 µM, the TGI [41] was > 100 µM and the TGI [42] was > 100 µM. For the same compound, the TGI [43] was > 100 µM, the TGI [44] was > 100 µM and the TGI [45] was > 100 µM. For the same compound, the TGI [46] was > 100 µM, the TGI [47] was > 100 µM and the TGI [57] was > 100 µM. For the same compound, the TGI [49] was > 100 µM, the TGI [50] was > 100 µM and the TGI [51] was > 100 µM. For the same compound, the TGI [52] was > 100 µM, the TGI [53] was > 100 µM and the TGI [58] was > 100 µM. For the same compound, the TGI [54] was > 100 µM, the TGI [55] was > 100 µM and the TGI [56] was > 100 µM.
